From ChEMBL document CHEMBL1149163, “Application of predictive QSAR models to database mining: identification and experimental validation of novel anticonvulsant compounds” (J Med Chem, 2004)

Tests used:
[1] = Neurologic toxicity from rotarod test in rats, perorally; assay type: organism-based; details: rat, in vivo, po
Rattus norvegicus [2] = species on record: Rattus norvegicus; test: Compound was evaluated for anticonvulsant activity by maximal electroshock seizure test, perorally in rats; assay type: functional; details: po
[3] = Neurologic toxicity from rotarod test in mice; assay type: organism-based; details: mouse, in vivo
Mus musculus [4] = test: Compound was evaluated for anticonvulsant activity by maximal electroshock seizure test, intraperitoneally in mice; assay type: functional; details: ip
[5] = Neurologic toxicity from rotarod test in mice; Value ranges from >100 to <300; assay type: organism-based; details: mouse, in vivo
Mus musculus [6] = test: Compound was evaluated for anticonvulsant activity by maximal electroshock seizure test, intraperitoneally in mice; Value ranges from >100 to <300; assay type: functional; details: ip
Rattus norvegicus [7] = species on record: Rattus norvegicus; test: Compound was evaluated for anticonvulsant activity by maximal electroshock seizure test, perorally in rats; Value ranges from >100 […]; assay type: functional; details: po
Mus musculus [8] = test: Compound was evaluated for anticonvulsant activity by maximal electroshock seizure test, intraperitoneally in mice; Value ranges from >100 […]; assay type: functional; details: ip
[9] = Neurologic toxicity from rotarod test in rats, perorally; Value ranges from >100 to <300; assay type: organism-based; details: rat, in vivo, po
[10] = Neurologic toxicity from rotarod test in mice; Value ranges from >100 […]; assay type: organism-based; details: mouse, in vivo

| SMILES | TD50 [1] [mg/kg] | ED50 (Rattus norvegicus [2]) [mg/kg] | TD50 [3] [mg/kg] | TD50 [5] [mg/kg] | also measured |
| --- | --- | --- | --- | --- | --- |
| CCNCC(=O)Nc1c(C)cccc1C | > 500 | 11 | 50 |  | ED50 (Mus musculus [4]): 18 mg/kg |
| Cc1cccc(NC(=O)N(C)C)c1 | > 30 |  |  | < 300 |  |
| CON(C)C(=O)C(C)NC(=O)OCc1ccccc1 (configuration not stated) | > 30 | ~30 |  | < 300 | ED50 (Mus musculus [6]): < 300 mg/kg |
| CON(C)C(=O)CNC(=O)OCc1ccccc1 | > 30 |  | 140 |  |  |
| CNC(=O)CNC(=O)OCc1ccccc1 |  |  |  | < 300 | ED50 (Rattus norvegicus [7]): < 30 mg/kg; ED50 (Mus musculus [8]): > 100 mg/kg; TD50 [9]: > 100 mg/kg |
| CN(C)C(=O)CNC(=O)OCc1ccccc1 | > 30 |  | 130 |  |  |
| CCNC(=O)CNC(=O)OCc1ccccc1 | > 500 |  |  |  | TD50 [10]: < 300 mg/kg |
| COCC(NC(C)=O)C(=O)N(C)Cc1ccccc1 (configuration not stated) |  |  |  |  | ED50 (Mus musculus [6]): < 300 mg/kg |
| CCN(CC)C(=O)CNC(=O)OCc1ccccc1 | > 30 |  | 91 |  |  |
| CCN(CC)C(=O)C(C)NC(=O)OCc1ccccc1 (configuration not stated) | > 30 | < 30 | 130 |  | ED50 (Mus musculus [4]): 74 mg/kg |
